Reference: US9914730B2, “Azaquinazoline inhibitors of Atypical protein Kinase C” (Ignyta, Inc., priority 2012, dated 2018)
Structures can show the parent of a compound that is named as a salt.

The molecules below were run against T1, full-length human PKCι (Homo sapiens, UniProt P41743) (assay: PKCι IC50 IMAP assay, full-length PKCι at 150 μM ATP). Conditions: read-out: IC50 in IMAP assay against full length PKCi at 150 μM ATP.
T1 construct: Recombinant, full-length human PKCι expressed in Sf21 insect cells is also commercially available; purchased; host or cells: Sf21 insect cells
T1 sequence (P41743 1-596): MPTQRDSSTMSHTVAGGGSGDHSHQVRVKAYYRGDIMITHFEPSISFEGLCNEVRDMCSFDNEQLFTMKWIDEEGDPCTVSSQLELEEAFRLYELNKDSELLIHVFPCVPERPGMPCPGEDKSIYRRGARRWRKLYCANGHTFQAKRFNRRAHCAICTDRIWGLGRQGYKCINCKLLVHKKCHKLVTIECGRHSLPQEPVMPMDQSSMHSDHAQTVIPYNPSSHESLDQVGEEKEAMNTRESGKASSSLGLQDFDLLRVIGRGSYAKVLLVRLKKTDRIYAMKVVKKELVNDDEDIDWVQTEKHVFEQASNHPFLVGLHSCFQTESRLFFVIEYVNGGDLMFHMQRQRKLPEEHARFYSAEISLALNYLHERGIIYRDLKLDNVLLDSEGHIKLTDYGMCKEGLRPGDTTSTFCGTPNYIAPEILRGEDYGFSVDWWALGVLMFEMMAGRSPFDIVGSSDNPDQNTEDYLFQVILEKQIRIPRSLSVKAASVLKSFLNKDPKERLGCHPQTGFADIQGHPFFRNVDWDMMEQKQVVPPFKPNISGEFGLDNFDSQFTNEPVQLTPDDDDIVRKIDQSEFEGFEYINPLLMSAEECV
Assay type: biochemical
Procedure, shortened: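 IC50 from IMAP FP (ex 485/em 530 nm) after 60 min room-temperature reaction in pH 7.5 tris buffer with 9 mM MgCl2 and 0.9 mM DTT. Enzyme: full-length Sf21-expressed PKCι (~15 pM); ATP 150 μM, five times KM^APP; FAM-labelled peptide 100 nM; DMSO 4%.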

| SMILES | IC50 |
| --- | --- |
| CCc1ccc(F)c(Nc2cc(-c3nc(N4CCNCC4)c4c(C5CC5)cncc4n3)ccn2)c1 [Example 715, [4-(5-Cyclopropyl-4-piperazin-1-yl-pyrido[3,4-d]pyrimidin-2-yl)-pyridin-2-yl]-(5-ethyl-2-fluoro-phenyl)-amine] | < 0.1 µM |
| CC(C)c1ccc(F)c(Nc2cc(-c3nc(N4CCNCC4)c4c(C5CC5)cncc4n3)ccn2)c1 [Example 716, [4-(5-Cyclopropyl-4-piperazin-1-yl-pyrido[3,4-d]pyrimidin-2-yl)-pyridin-2-yl]-(2-fluoro-5-isopropyl-phenyl)-amine] | < 0.1 µM |
| CCc1ccc(Nc2cc(-c3nc(N4CCNCC4)c4c(C5CC5)cncc4n3)ccn2)c(F)c1 [Example 717, [4-(5-Cyclopropyl-4-piperazin-1-yl-pyrido[3,4-d]pyrimidin-2-yl)-pyridin-2-yl]-(4-ethyl-2-fluoro-phenyl)-amine] | < 0.1 µM |
| CC1(C)CN(c2nc(-c3ccnc(Nc4c(F)cccc4F)c3)nc3cncc(C4CC4)c23)CCN1 [Example 718, {4-[5-Cyclopropyl-4-(3,3-dimethyl-piperazin-1-yl)-pyrido[3,4-d]pyrimidin-2-yl]-pyridin-2-yl}-(2,6-difluoro-phenyl)-amine] | < 0.1 µM |
| CC1(C)CN(c2nc(-c3ccnc(Nc4ccc(F)cc4)c3)nc3cncc(C4CC4)c23)CCN1 [Example 719] | < 0.1 µM |
| CN1CCN(c2cccc(Nc3cc(-c4nc(N5CCC[C@@H](O)C5)c5c(C6CC6)cncc5n4)ccn3)c2)CC1 [Example 720, (R)-1-(5-Cyclopropyl-2-{2-[3-(4-methyl-piperazin-1-yl)-phenylamino]-pyridin-4-yl}-pyrido[3,4-d]pyrimidin-4-yl)-piperidin-3-ol] | < 0.1 µM |
| CN1CCN(c2cccc(Nc3cc(-c4nc(N5CC[C@@H](CO)C5)c5c(C6CC6)cncc5n4)ccn3)c2)CC1 [Example 721, [(R)-1-(5-Cyclopropyl-2-{2-[3-(4-methyl-piperazin-1-yl)-phenylamino]-pyridin-4-yl}-pyrido[3,4-d]pyrimidin-4-yl)-pyrrolidin-3-yl]-methanol] | < 0.1 µM |
| CN1CCN(c2cccc(Nc3cc(-c4nc(N5CC[C@H](CO)C5)c5c(C6CC6)cncc5n4)ccn3)c2)CC1 [Example 722, [(S)-1-(5-Cyclopropyl-2-{2-[3-(4-methyl-piperazin-1-yl)-phenylamino]-pyridin-4-yl}-pyrido[3,4-d]pyrimidin-4-yl)-pyrrolidin-3-yl]-methanol] | < 0.1 µM |
| CCNC(=O)C1CCN(c2nc(-c3ccnc(Nc4c(F)cccc4F)c3)nc3cncc(C4CC4)c23)CC1 [Example 723, 1-{5-Cyclopropyl-2-[2-(2,6-difluoro-phenylamino)-pyridin-4-yl]-pyrido[3,4-d]pyrimidin-4-yl}-piperidine-4-carboxylic acid ethylamide] | 1 to 10 µM |
| Fc1cc(C2CC2)nc(F)c1Nc1cc(-c2nc(N3CCNCC3)c3c(C4CC4)cncc3n2)ccn1 [Example 724, (6-Cyclopropyl-2,4-difluoro-pyridin-3-yl)-[4-(5-cyclopropyl-4-piperazin-1-yl-pyrido[3,4-d]pyrimidin-2-yl)-pyridin-2-yl]-amine; bis-trifluoroacetic salt] | < 0.1 µM |
| Fc1nc(C2CC2)ccc1Nc1cc(-c2nc(N3CCNCC3)c3c(C4CC4)cncc3n2)ccn1 [Example 725, (6-Cyclopropyl-2-fluoro-pyridin-3-yl)-[4-(5-cyclopropyl-4-piperazin-1-yl-pyrido[3,4-d]pyrimidin-2-yl)-pyridin-2-yl]-amine; bis-trifluoroacetic acid salt] | < 0.1 µM |
| CNC(=O)C1CCN(c2nc(-c3ccnc(Nc4c(F)cccc4F)c3)nc3cncc(C4CC4)c23)C1 (stereo not shown) [Example 726, 1-{5-Cyclopropyl-2-[2-(2,6-difluoro-phenylamino)-pyridin-4-yl]-pyrido[3,4-d]pyrimidin-4-yl}-pyrrolidine-3-carboxylic acid methylamide] | 0.1 to 1 µM |
| CN1CCN(c2cccc(Nc3cc(-c4nc(N5CC[C@H](O)C5)c5c(C6CC6)cncc5n4)ccn3)c2)CC1 [Example 727, (S)-1-(5-Cyclopropyl-2-{2-[3-(4-methyl-piperazin-1-yl)-phenylamino]-pyridin-4-yl}-pyrido[3,4-d]pyrimidin-4-yl)-pyrrolidin-3-ol] | < 0.1 µM |
| CN1CCN(c2nc(-c3ccnc(Nc4cccc(N5CCC(O)CC5)c4)c3)nc3cncc(C4CC4)c23)CC1 [Example 728, 1-(3-{4-[5-Cyclopropyl-4-(4-methyl-piperazin-1-yl)-pyrido[3,4-d]pyrimidin-2-yl]-pyridin-2-ylamino}-phenyl)-piperidin-4-ol] | 0.1 to 1 µM |
| OC1CCN(c2nc(-c3ccnc(Nc4cccc(N5CCNCC5)c4)c3)nc3cncc(C4CC4)c23)CC1 [Example 729, 1-{5-Cyclopropyl-2-[2-(3-piperazin-1-yl-phenylamino)-pyridin-4-yl]-pyrido[3,4-d]pyrimidin-4-yl}-piperidin-4-ol] | < 0.1 µM |
| CC(Nc1cc(-c2nc(N3CCNCC3)c3c(C4CC4)cncc3n2)ccn1)c1cnn(C)c1 (stereo not shown) [Example 730, [4-(5-Cyclopropyl-4-piperazin-1-yl-pyrido[3,4-d]pyrimidin-2-yl)-pyridin-2-yl]-[1-(1-methyl-1H-pyrazol-4-yl)-ethyl]-amine] | < 0.1 µM |
| Fc1nc(N2CCOCC2)ccc1Nc1cc(-c2nc(N3CCNCC3)c3c(C4CC4)cncc3n2)ccn1 [Example 731, [4-(5-Cyclopropyl-4-piperazin-1-yl-pyrido[3,4-d]pyrimidin-2-yl)-pyridin-2-yl]-(2-fluoro-6-morpholin-4-yl-pyridin-3-yl)-amine] | < 0.1 µM |
| OC1CCN(c2nc(-c3ccnc(Nc4cnn(CC5CCNCC5)c4)c3)nc3cncc(C4CC4)c23)CC1 [Example 732, 1-{5-Cyclopropyl-2-[2-(1-piperidin-4-ylmethyl-1H-pyrazol-4-ylamino)-pyridin-4-yl]-pyrido[3,4-d]pyrimidin-4-yl}-piperidin-4-ol] | < 0.1 µM |
| Clc1cc(-c2nc(N3CCN[C@@H](COCc4ccccc4)C3)c3c(C4CC4)cncc3n2)ccn1 [Example 733, 4-((R)-3-Benzyloxymethyl-piperazin-1-yl)-2-(2-chloro-pyridin-4-yl)-5-cyclopropyl-pyrido[3,4-d]pyrimidine] | 1 to 10 µM |
| c1cc(Nc2cc(-c3nc(N4CCNCC4)c4c(C5CC5)cncc4n3)ccn2)cc(C2CC2)c1 [Example 734, (3-Cyclopropyl-phenyl)-[4-(5-cyclopropyl-4-piperazin-1-yl-pyrido[3,4-d]pyrimidin-2-yl)-pyridin-2-yl]-amine] | < 0.1 µM |
| CN1CCN(C(=O)C2CCN(c3nc(-c4ccnc(Nc5c(F)cccc5F)c4)nc4cncc(C5CC5)c34)CC2)CC1 [Example 735, (1-{5-Cyclopropyl-2-[2-(2,6-difluoro-phenylamino)-pyridin-4-yl]-pyrido[3,4-d]pyrimidin-4-yl}-piperidin-4-yl)-(4-methyl-piperazin-1-yl)-methanone] | 0.1 to 1 µM |
| CN(C)CCNC(=O)C1CCN(c2nc(-c3ccnc(Nc4c(F)cccc4F)c3)nc3cncc(C4CC4)c23)CC1 [Example 736, 1-{5-Cyclopropyl-2-[2-(2,6-difluoro-phenylamino)-pyridin-4-yl]-pyrido[3,4-d]pyrimidin-4-yl}-piperidine-4-carboxylic acid (2-dimethylamino-ethyl)-amide] | < 0.1 µM |
